Data: EP0923943A1, “MICELLAR AQUEOUS COMPOSITION AND METHOD FOR SOLUBILIZING HYDROPHOBIC DRUG” (TAISHO PHARMACEUTICAL CO. LTD, priority 1996, dated 1997)
≈ marks a conversion by molar mass, not a printed value.

Test: Saturation solubility of taxol
Format: physicochemical
Conditions: pH 7.4, aqueous buffer

solubility: 0.32 µg/mL (≈ 0.375 µM)
SMILES: CC(=O)O[C@H]1C(=O)[C@@]2(C)[C@H]([C@H](OC(=O)c3ccccc3)[C@]3(O)C[C@H](OC(=O)[C@H](O)[C@@H](NC(=O)c4ccccc4)c4ccccc4)C(C)=C1C3(C)C)[C@]1(OC(C)=O)CO[C@@H]1C[C@@H]2O [taxol]
